In paper PMC6747051, “Screening of Antiviral Components of Ma Huang Tang and Investigation on the Ephedra Alkaloids Efficacy on Influenza Virus Type A” (Frontiers in Pharmacology, 2019):
Converted amounts (≈) assume the structure as drawn. “Also recorded” adds a separate entry of the source.

Key:
[1] = tested on: influenza A virus; assay: Antiviral activity assay in vitro with four ways of drug delivery (MTT, MDCK cells); format: cell-based, influenza virus A/PR8/34 (H1N1); details: for EC50: Influenza A virus, MDCK; for antiviral effective rate (ER): final concentration 3.91 μg/ml
[2] = tested on: influenza A virus; assay: Viral load assay using real-time RT-PCR (M1 gene) and CPE in infected MDCK cells; format: cell-based, influenza virus A/PR8/34 (H1N1); details: 24 and 48 h after administration; for viral load in MDCK cells vs control infected group: each dose group, P < 0.01 or P < 0.05
[3] = tested on: IL-6, IFN-β and TNF-α levels; format: cell-based, canine
[4] = tested on: TLRs signaling pathway mRNA; format: cell-based, canine
[5] = tested on: influenza A virus (A PR/8/34); assay: HE assay of lung tissue of infected mice; format: in vivo, ICR mice; details: days 3 and 7 post-infection, 40, 20, 10 mg/kg
Description: (§1) A total of 108 ICR mice were randomly divided into the control uninfected group, the control infected group, oseltamivir group, LEP-treated groups and DPEP-treated groups; 12 mice were designed in each group. Except for the mice in the control uninfected group, others were anaesthetized with ethyl ether and intranasally infected with 10LD50 influenza A virus (A PR/8/34) in a volume of 50 μl PBS to induce viral pneumonia. […] Meanwhile, the control uninfected group and the control infected group were only given saline with the same volume. […] The adult daily dose was converted into the high dose of mice, which was about 40 mg/kg. Based on the high dose of the drug, the medium and low doses were set.
In the 3rd and 7th days after infection, the right lung lobes from each mouse were washed with normal saline and immediately soaked in 10% normal buffered formalin for one week. Then the samples were dehydrated with ethanol and embedded in paraffin. The 4-μm-thick lung sections were stained with HE and the pathological changes of lung tissue were observed under the light microscope.

[6] = tested on: influenza A virus (A PR/8/34); assay: RT-PCR analysis of viral load in murine lung tissue; format: in vivo, ICR mice
Description: as §1
In the 3rd and 7th days after infection, the left lung lobes from each mouse were washed with normal saline and stored at -80°C for RT-PCR and western blot analysis use. For RT-PCR analysis, the left lung was homogenized in precooled normal saline and centrifuged at 4000 rpm for 10 min at 4 °C. Total RNA was extracted using the High Pure Viral Nucleic Acid kit and cDNA was synthesized with the PrimeScript™ RT Master Mix kit. The specific steps of RT-PCR amplification were the same as the previous section in the present study. The related primers for mouse were designed by Sangon Biotech, Co., Ltd. (Shanghai, China) and are described in Table S2 .

[7] = tested on: IL-1β, IL-6 and IL-10 in serum; format: in vivo, ICR mice; details: 3rd and 7th day after infection; for IL-10 in serum: P < 0.01; for IL-1β in serum: P < 0.01 or P < 0.05; for IL-6 in serum: P > 0.05
Description: as §1
In days 3 and 7 post-infection, blood samples of six mice from each group were collected from retroorbital sinus under mild ethyl ether anesthesia before they were sacrificed, then under 4 °C they were centrifuged at 3000 rpm for 20 min to obtain serum. The levels of IL-1β, IL-6 and IL-10 in murine serum were determined by ELISA kits.

[8] = tested on: TNF-α, IFN-γ, TLR3, TLR4, TLR7, MyD88, NF-κB p65 and RIG-1 mRNA; design: species or system ICR mice; details: mouse, in vivo
[9] = tested on: TLR4, TLR7, MyD88 and NF-κB p65 protein expression; design: species or system ICR mice; details: mouse, in vivo
[10] = tested on: influenza A virus; details: dog
[11] = tested on: influenza A virus; assay: microbe, parasite or virus in culture; details: MDCK, 48 h, read-out: Cell survival rate
[12] = tested on: influenza A virus (A PR/8/34); assay: Lung index of influenza A virus-infected mice; format: in vivo, ICR mice
Description: as §1
(§2) In the 3rd and 7th days after infection, to monitor the histological changes in influenza A virus-infected animals, six mice were sacrificed randomly in each group, and lung, spleen and thymus tissues were obtained and weighed after being washed with saline solution. Lung index and the inhibition ratio of the lung index were calculated as our previous report, while spleen and thymus indexes were calculated based on the following formulas ([Ling et al., 2017]).

[13] = tested on: influenza A virus (A PR/8/34); assay: Spleen and thymus indexes of infected mice; format: in vivo, ICR mice
Description: as §1, §2
Spleen index = (spleen weight/body weight)×100%;
Thymus index = (thymus weight/body weight)×100%;

[14] = tested on: MDCK cells; details: dog, 48 h
[15] = drug delivery way: Blocking viruses invading host cells
[16] = drug delivery way: Directly inhibiting virus
[17] = drug delivery way: Inhibiting the biosynthesis of virus
[18] = drug delivery way: Intervening the adsorption of virus
[19] = 3rd day after infection, three doses, P < 0.01 or P < 0.05
[20] = 7th day after infection, 40 and 20 mg/kg groups, P < 0.05

CN[C@@H](C)[C@H](O)c1ccccc1 [LEP, L-ephedrine]
EC50 [1, 15]: 11 µg/mL (≈ 66.3 µM)
EC50 [1, 16]: 6.28 µg/mL (≈ 38 µM)
EC50 [1, 17]: 5.66 µg/mL (≈ 34.3 µM)
EC50 [1, 18]: 7.15 µg/mL (≈ 43.3 µM)
antiviral effective rate (ER) [1]: > 36.00%
CPE of infected MDCK cells [2]: significantly reduce the CPE
viral load in MDCK cells vs control infected group [2]: significantly decreased
IL-6 level in cell supernatant vs control infected group [3]: significantly higher than that in the control infected group
level of IFN-β in cell supernatant vs control infected group [3]: significantly increase; also recorded: increased
secretion of TNF-α vs control infected group [3]: significantly inhibited the secretion of TNF-α
mRNA expression levels of TLR4 and TRAF3 [4]: inhibited
mRNA expression levels of TLR7, NF-κB p65, TLR3 and IRF3 [4]: significantly reduced
mRNA expression of IFN-β [4]: significantly increased
mRNA expression of MyD88 and TRAF6 [4]: marked decreased
mRNA expression of TLR4 and MyD88 [4]: significantly inhibited
mRNA expression of TRAF6 and TRAF3 [4]: decreased
histopathological responses of lung tissue [5]: attenuated the inflammation
viral load in lung tissue vs control infected group [6, 19]: significantly decreased
viral load in lung tissue vs control infected group [6, 20]: significantly reduced
IL-10 in serum [7]: accelerated the production of IL-10
IL-1β in serum [7]: dramatically inhibited the production of IL-1β
IL-6 in serum [7]: slightly increased
mRNA expression levels of TLR3, TLR4, TLR7, MyD88, NF-κB p65 and RIG-1 in lung tissue [8]: obviously inhibited
mRNA expression of IFN-γ in lung tissue [8]: significantly promoted
mRNA expression of TNF-α in lung tissue [8]: markedly inhibited
inhibition effect on protein expression of TLR4 and TLR7 in lung tissue [9]: not obvious
protein expression levels of MyD88 and NF-κB p65 in lung tissue [9]: significantly down-regulated
protein expression levels of TLR4 and TLR7 in lung tissue [9]: Decreased
protein expression of TLR4, TLR7 and NF-κB p65 in comparison to oseltamivir [9]: dramatically inhibit
cell viability rate [10]: ≥ 70%
viability at 0.49 µg/mL [11]: 42.6%
viability at 0.98 µg/mL [11]: 51.6%
viability at 1.95 µg/mL [11]: 57.8%
viability at 3.91 µg/mL [11]: 61.5%
viability at 7.81 µg/mL [11]: 67.2%

CN[C@@H](C)[C@@H](O)c1ccccc1 [DPEP, D-pseudoephedrine]
EC50 [1, 15]: 8.17 µg/mL (≈ 49.4 µM)
EC50 [1, 16]: 6.04 µg/mL (≈ 36.6 µM)
EC50 [1, 17]: 4.67 µg/mL (≈ 28.3 µM)
EC50 [1, 18]: 7.57 µg/mL (≈ 45.8 µM)
antiviral effective rate (ER) [1]: more than 38.00%
CPE of infected MDCK cells [2]: significantly reduce the CPE
viral load in MDCK cells vs control infected group [2]: significantly decreased
IL-6 level in cell supernatant vs control infected group [3]: significantly higher than that in the control infected group
level of IFN-β in cell supernatant vs control infected group [3]: significantly increase; also recorded: increased
secretion of TNF-α vs control infected group [3]: significantly inhibited the secretion of TNF-α
IFN-β mRNA expression compared with the oseltamivir group [4]: significantly increased
mRNA expression levels of MyD88, TRAF6 and TRAF3 [4]: obvious decreased
mRNA expression levels of NF-κB p65, TRAF3 and IRF3 compared with the oseltamivir group [4]: significantly reduced
mRNA expression levels of TLR7, NF-κB p65, TLR3 and IRF3 [4]: significantly reduced
mRNA expression levels of TRAF6 and TLR4 [4]: reduced
mRNA expression of IFN-β [4]: significantly increased
mRNA expression of MyD88 and TRAF3 [4]: significant decreased
mRNA expression of TLR4 [4]: significant decreased
histopathological responses of lung tissue [5]: attenuated the inflammation
viral load in lung tissue vs control infected group [6, 19]: significantly decreased
viral load in lung tissue vs control infected group [6, 20]: significantly reduced
IL-10 in serum [7]: accelerated the production of IL-10
IL-1β in serum [7]: dramatically inhibited the production of IL-1β
IL-6 in serum [7]: slightly increased
mRNA expression levels of TLR3, TLR4, TLR7, MyD88, NF-κB p65 and RIG-1 in lung tissue [8]: obviously inhibited
mRNA expression of IFN-γ in lung tissue [8]: significantly promoted
mRNA expression of TNF-α in lung tissue [8]: markedly inhibited
inhibition effect on protein expression of TLR4 and TLR7 in lung tissue [9]: not obvious
protein expression levels of MyD88 and NF-κB p65 in lung tissue [9]: significantly down-regulated
protein expression levels of TLR4 and TLR7 in lung tissue [9]: Decreased
protein expression of TLR4, TLR7 and NF-κB p65 in comparison to oseltamivir [9]: dramatically inhibit
cell viability rate [10]: ≥ 70%
viability at 0.49 µg/mL [11]: 45.3%
viability at 0.98 µg/mL [11]: 54.7%
viability at 1.95 µg/mL [11]: 61.2%
viability at 3.91 µg/mL [11]: 63.9%
viability at 7.81 µg/mL [11]: 72.5%

CCOC(=O)C1=C[C@@H](OC(CC)CC)[C@H](NC(C)=O)[C@@H](N)C1 [Oseltamivir, reference compound]
CPE of infected MDCK cells [2]: significantly reduce the CPE
IL-6 level in cell supernatant vs control infected group [3]: significantly higher than that in the control infected group
Inhibition ratio of lung index ([12]; Day 3, 22 mg/kg by gavage): 41.27%
Lung index ([12]; Day 3, 22 mg/kg by gavage): 0.74 ± 0.03
Inhibition ratio of lung index ([12]; Day 7, 22 mg/kg by gavage): 38.86%
Lung index ([12]; Day 7, 22 mg/kg by gavage): 1.18 ± 0.11
spleen index ([13]; Day 3, 22 mg/kg): 0.51 ± 0.13
thymus index ([13]; Day 3, 22 mg/kg): 0.45 ± 0.05
spleen index ([13]; Day 7, 22 mg/kg): 0.49 ± 0.08
thymus index ([13]; Day 7, 22 mg/kg): 0.38 ± 0.03
IL-10 in serum [7]: accelerated the production of IL-10
IL-1β in serum [7]: dramatically inhibited the production of IL-1β
IL-6 in serum [7]: slightly increased
protein expression levels of MyD88 and NF-κB p65 in lung tissue [9]: significantly down-regulated
protein expression levels of TLR4 and TLR7 in lung tissue [9]: Decreased
TC0 [14]: 100.00 µg/mL
TC50 [14]: 500.00 µg/mL (≈ 1600 µM)
viability at 10 µg/mL [11]: 82.7%
